From paper PMC9369610, “Pro-Apoptotic and Pro-Autophagic Properties of Cardenolides from Aerial Parts of Pergularia tomentosa” (Molecules, 2022)

Assays:
HepG2 cells [1] = assay: MTT cell viability assay, IC50 in HepG2 cells; assay type: cell-based; settings: Homo sapiens, 24 h, SE less than 10% of value
Description: (§1) The human liver hepatocellular carcinoma cell line, HepG2, and the human adenocarcinoma of colon cell line, Caco-2, were cultured in Eagle’s Minimum Essential medium supplemented with 1% (v/v) non-essential amino acids, 0.2 mM L-glutamine, 50 units/mL penicillin, 50 μg/mL streptomycin and 10% (v/v) or 20% (v/v) fetal bovine serum (Sigma Aldrich, Milan, Italy) for HepG2 or Caco-2, respectively. The human embryonal lung fibroblast cell line, MRC5, was cultured in Dulbecco’s Modified Eagle medium (Sigma Aldrich, Milan, Italy) supplemented with 10% (v/v) fetal bovine serum, 0.2 mM L-glutamine, 50 units/mL penicillin and 50 μg/mL streptomycin. HUVEC cells were cultured in endothelial growth medium-2, supplemented with fetal bovine serum (2%), VEGF (0.1%), rH FGF-B (0.4%), rH EGF (0.1%), GA-1000 (0.1%), hydrocortisone (0.04%), R3-IGF-1 (0.1%), heparin (0.1%) and ascorbic acid (0.1%). Cells were maintained at 37 °C in a 5% CO2, 95% air-humidified atmosphere and passaged twice a week. Cell lines were obtained from Interlab Cell Line Collection, Istituto Nazionale per la Ricerca sul Cancro, Genoa, Italy. HUVEC were obtained from Lonza (Milan, Italy).
(§2) An MTT assay was used to analyse cell viability. Cells were seeded in 96 wells at the density of 2 × 10^4/cm^2 and, after 24 h, they were treated with P. tomentosa compounds or with the vehicle (DMSO). After a further 24 h of treatment, 0.5 mg/mL of MTT was added to the cell medium and incubated for 1.5 h at 37 °C. The resulting formazan crystals were dissolved in 100 μL of DMSO and absorbances were measured at 595 nm and 655 nm. The background signals at 655 nm were subtracted from 595 nm signals, and data were expressed as a percent of cell viability. The concentration of each compound that is required for 50% inhibition in vitro (IC50) was calculated as described in Husseini et al.. IC50 values were obtained for Caco-2, HepG2 and MRC5 cells by performing MTT assays with concentrations ranging from 0.01 μg/mL to 5 μg/mL.

p53 in HepG2 cells = assay: Western blot analysis of p53 expression; assay type: cell-based, human; settings: HepG2, 1 μM, 24 h
Description: To analyse the protein levels of p53, caspase-3, GRP78, LC3 and p62, HepG2 cells were treated with P. tomentosa compounds (1 or 2 μM) or with DMSO for the indicated times; then, Western blot analyses were performed. Briefly, cells were lysed in RIPA buffer (20 mM Tris-HCl, pH 7.5, 150 mM NaCl, 1 mM EDTA, 1 mM dithiothreitol, 0.1% sodium dodecyl sulphate, 1% triton X-100, 1 mM orthovanadate, and a cocktail of inhibitors (Sigma-Aldrich, Milan, Italy)). After separation on a sodium dodecyl sulphate-polyacrylamide gel electrophoresis and transfer to a poly-vinylidene fluoride membrane (Euroclone, Milan, Italy), the following primary antibodies were used, at a dilution of 1:1000 in tris-buffered saline containing 1% non-fat dry milk, overnight at 4 °C: mouse anti-p53 antibody, mouse anti-MAP LC3 β antibody, mouse anti-p62 antibody (DBA, Milan, Italy), mouse anti-GRP78 antibody, and mouse anti-caspase 3 antibody (Thermo Fisher Scientific, Milan, Italy). For normalisation, a mouse anti-GAPDH antibody (Microtech, Naples, Italy) was used.

[2] = test system: HepG2, Caco-2, MRC5 and HUVEC cells; assay: MTT assay, comparison of cytotoxic effects at 1 μM on four cell types; assay type: cell-based, human; settings: 24 h, Caco-2, HepG2, MRC5, HUVEC
Text: We focused attention on 12β,6′-dihydroxycalotropin (1), 16α-hydroxycalotropin (2), 12β-hydroxycalactin (3), calotropin (4), and calactin (5), among those described by Hosseini et al., and tested their cytotoxic activity by a 3-(4,5-dime-thylthiazol-2-yl)-2,5-diphenylte-tetrazolium bromide (MTT) assay on two cancer cell lines (HepG2 and Caco-2), not previously employed, on an immortalised nontumoral cell line (MRC5) and normal primary cells (HUVEC).
Figure 2 Comparison of cytotoxic effects of P. tomentosa compounds on cancer cell lines (Caco-2 and HepG2), on an immortalised cell line (MRC5) and normal cells (HUVEC). Cells were treated for 24 h with 1 μM of each compound. Residual viability was measured by the MTT assay. Values are the means ± standard error (SE) of three independent experiments performed in triplicate. Statistical analysis was performed using the Student’s t-test. * p < 0.05 and ** p < 0.01 vs. cells treated with the vehicle (DMSO).
as §1, §2

HepG2 cells [3] = assay: TUNEL assay; assay type: cell-based, human; settings: HepG2, 1 μM, 24 h
Description: Microscopic evaluation of apoptosis was performed by a TUNEL assay, using a commercial kit (Fragment End Labelling (FragEL™), […]) DNA Fragmentation Detection Kit, Sigma-Aldrich, Milan, Italy) according to the manufacturer-provided protocol, with some modifications. Briefly, cells were seeded on glass cover slips placed in 24-well plates at a density of 3.5 × 10^3/cm^2 and, after 48 h, they were treated with 1 μΜ of each compound for a further 24 h. Cells were fixed in 3% paraformaldehyde for 10 min, permeabilised in 0.2% Triton X-100 for 5 min and treated with HCl 1.5 N for 8 min. Finally, cover slips were equilibrated in equilibration buffer (10 min) and incubated with label mix containing the TdT enzyme for 1 h at 37 °C, then mounted with mounting media. Microscope observations were performed by the AxioSkop 40 fluorescent microscope. Images were acquired with Axiocam MRc5 (Carl Zeiss MicroImaging, Inc., Jena, Germany).

MRC5 cells = assay: MTT cell viability assay, IC50 in MRC5 cells; assay type: cell-based; settings: Homo sapiens, 24 h, SE less than 10% of value
Description: as §1, §2

C[C@@H]1C[C@@H](O)[C@]2(O)O[C@@H]3C[C@@]4(C=O)[C@@H](CC[C@@H]5[C@@H]4CC[C@]4(C)[C@@H](C6=CC(=O)OC6)CC[C@]54O)C[C@H]3O[C@@H]2O1 [Compound 5, calactin]
IC50 (HepG2 cells [1]): 127 nM
p53 protein level (p53 in HepG2 cells): clearly decreased the p53 amount
relative cytotoxicity (residual viability, MTT) [2]: most cytotoxic
apoptotic nuclei (TUNEL) (HepG2 cells [3]): occurrence of apoptotic nuclei
IC50 (MRC5 cells): 990 nM
